Reference: patent US20090325959A1 (priority 2008, published 2009)
Read-outs that look alike come from different tables or passages of the source.

Legend:
ROCK2 = molecular target: T1, ROCK2 (Homo sapiens, UniProt O75116); assay: Rho kinase inhibition assay (IMAP fluorescence polarization), ROCK2; assay type: biochemical;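 further: kinase reaction started with 10 µM ATP and run 60 min at room temperature, then phosphorylated substrate captured on IMAP beads for 30 min and fluorescence polarization read in mP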
T1 construct: purchased Upstate/Chemicon 14-451
T1 sequence (O75116 11-552 limits assumed): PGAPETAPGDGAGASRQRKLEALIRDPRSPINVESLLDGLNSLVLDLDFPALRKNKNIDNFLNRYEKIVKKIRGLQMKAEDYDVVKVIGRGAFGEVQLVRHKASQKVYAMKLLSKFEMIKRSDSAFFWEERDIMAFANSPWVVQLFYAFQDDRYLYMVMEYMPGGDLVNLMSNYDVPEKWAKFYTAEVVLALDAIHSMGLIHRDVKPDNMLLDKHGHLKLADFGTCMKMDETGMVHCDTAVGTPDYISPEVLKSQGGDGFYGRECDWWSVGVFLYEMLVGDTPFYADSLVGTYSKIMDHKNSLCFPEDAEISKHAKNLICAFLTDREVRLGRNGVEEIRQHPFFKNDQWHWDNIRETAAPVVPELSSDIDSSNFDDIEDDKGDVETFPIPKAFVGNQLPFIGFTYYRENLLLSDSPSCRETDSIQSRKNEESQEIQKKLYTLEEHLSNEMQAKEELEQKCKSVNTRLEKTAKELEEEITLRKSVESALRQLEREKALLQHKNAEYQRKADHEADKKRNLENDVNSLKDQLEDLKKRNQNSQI
Protocol: (§1) Following the pre-incubation, 10 μM ATP was added to initiate the reaction. After 60 minutes at room temperature, Molecular Devices IMAP™ binding solution was added to bind phosphorylated substrate. After 30 minutes of incubation in the presence of the IMAP™ beads, the fluorescence polarization was read and the ratio was reported as mP. IC50 values for compounds and EC50 values for ATP were calculated using the Prism software from Graphpad.

[1] = Compound plasma concentrations in unsensitized mice at 15 min post administration; assay type: in vivo; details: mouse, 15 μmol/kg; mean compound plasma concentration in mice at 15 minutes post oral administration; read-out: Mouse Oral PK
ROCK1 = molecular target: T2, ROCK1 (Homo sapiens, UniProt Q13464); assay: Rho kinase inhibition assay (IMAP fluorescence polarization), ROCK1; assay type: biochemical;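 further: kinase reaction run 60 min at room temperature, then phosphorylated substrate captured on IMAP beads for 30 min, with fluorescence polarization read in mP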
T2 construct: purchased Upstate/Chemicon 14-601
T2 sequence (Q13464 17-535 limits assumed): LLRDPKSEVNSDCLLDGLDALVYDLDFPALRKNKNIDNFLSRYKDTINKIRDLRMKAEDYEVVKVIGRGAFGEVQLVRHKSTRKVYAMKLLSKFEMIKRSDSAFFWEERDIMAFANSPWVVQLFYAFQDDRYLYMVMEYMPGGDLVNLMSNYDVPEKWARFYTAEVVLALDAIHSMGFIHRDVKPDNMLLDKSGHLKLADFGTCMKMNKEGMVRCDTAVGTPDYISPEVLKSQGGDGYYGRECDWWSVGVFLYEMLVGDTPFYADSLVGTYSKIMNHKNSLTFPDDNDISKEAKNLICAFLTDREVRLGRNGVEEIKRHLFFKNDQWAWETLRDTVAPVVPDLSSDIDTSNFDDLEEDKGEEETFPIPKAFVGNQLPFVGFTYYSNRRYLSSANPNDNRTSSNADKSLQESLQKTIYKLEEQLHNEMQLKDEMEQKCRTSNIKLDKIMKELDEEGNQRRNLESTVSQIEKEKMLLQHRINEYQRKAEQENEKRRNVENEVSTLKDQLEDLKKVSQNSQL
Protocol: as §1

p70S6K human enzyme = molecular target: T3, p70S6K human enzyme (Homo sapiens, UniProt P23443, T412E); assay: p70S6K inhibition assay (IMAP FP); assay type: biochemical;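 further: kinase reaction run at room temperature, phosphorylated substrate captured on IMAP beads and read as fluorescence polarization in mP, IC50 then converted to Ki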
T3 construct: purchased Upstate Chemicon 14-486
T3 sequence (P23443 1-421 T412E limits assumed): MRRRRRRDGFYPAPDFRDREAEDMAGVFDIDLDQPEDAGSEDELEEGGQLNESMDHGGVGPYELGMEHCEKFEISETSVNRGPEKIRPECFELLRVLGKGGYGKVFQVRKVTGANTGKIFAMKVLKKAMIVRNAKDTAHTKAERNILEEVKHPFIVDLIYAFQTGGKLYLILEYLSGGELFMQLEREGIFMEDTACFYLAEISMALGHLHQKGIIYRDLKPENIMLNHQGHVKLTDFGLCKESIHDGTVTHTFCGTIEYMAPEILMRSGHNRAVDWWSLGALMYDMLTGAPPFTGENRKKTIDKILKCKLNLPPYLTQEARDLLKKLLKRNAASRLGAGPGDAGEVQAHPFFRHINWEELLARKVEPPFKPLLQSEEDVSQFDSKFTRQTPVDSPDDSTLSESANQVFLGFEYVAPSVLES

Akt3 human enzyme = molecular target: T4, Akt3 human enzyme (Homo sapiens, UniProt Q9Y243); assay: Akt3 inhibition assay (IMAP FP); assay type: biochemical;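 further: kinase reaction run 60 min at room temperature after 30 µM ATP start, phosphorylated substrate captured on IMAP beads and read as fluorescence polarization (mP)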
T4 construct: purchased Upstate Chemicon 14-502
T4 sequence (Q9Y243 whole entry): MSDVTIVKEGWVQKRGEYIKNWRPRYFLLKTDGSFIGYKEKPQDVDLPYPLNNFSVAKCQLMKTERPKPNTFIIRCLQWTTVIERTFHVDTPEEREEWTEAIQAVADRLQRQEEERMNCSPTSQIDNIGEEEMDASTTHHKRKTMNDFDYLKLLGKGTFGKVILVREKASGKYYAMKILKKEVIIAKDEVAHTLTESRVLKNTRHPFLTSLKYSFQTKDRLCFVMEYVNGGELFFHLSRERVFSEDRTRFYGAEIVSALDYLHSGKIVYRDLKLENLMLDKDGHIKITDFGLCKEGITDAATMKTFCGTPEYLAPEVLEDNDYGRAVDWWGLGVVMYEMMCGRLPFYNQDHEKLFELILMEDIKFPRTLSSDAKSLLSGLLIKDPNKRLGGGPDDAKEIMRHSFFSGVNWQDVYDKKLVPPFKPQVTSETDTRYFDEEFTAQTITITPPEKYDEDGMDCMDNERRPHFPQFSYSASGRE

[2] = 10 μM ATP, read-out: ROCK2 Ki, Avg
[3] = 30 μM ATP, Ki=IC50/(1+([ATP Challenge]/EC50 ATP)), read-out: p70S6K Ki, Avg
[4] = average Ki, read-out: p70S6K Ki
[5] = 30 μM ATP, Ki=IC50/(1+([ATP Challenge]/EC50 ATP)), read-out: Akt3 Ki, Avg

CSc1cccc(CN2CCC[C@H](Nc3ccc4[nH]ncc4c3)C2)c1 [Compound 1.158, (S)-N-(1-(3-(methylthio)benzyl)piperidin-3-yl)-1H-indazol-5-amine]
Ki (ROCK2; [2]): 5.1 nM
Ki (ROCK2; average Ki, read-out: ROCK2 Ki): 5.1 nM
concentration at 15 min [1]: 102 nM
Ki (ROCK1; Avg, 10 μM ATP): 64.1 nM
Ki (ROCK1; average Ki): 64.1 nM
Ki (p70S6K human enzyme; [3]): 1970 nM
Ki (p70S6K human enzyme; [4]): 1970 nM
Ki (Akt3 human enzyme; [5]): 5910 nM
Ki (Akt3 human enzyme; average Ki, read-out: Akt3 Ki): 5910 nM

Oc1cccc(CN2CCC[C@H](Nc3ccc4[nH]ncc4c3)C2)c1 [Compound 1.163, (S)-3-((3-(1H-indazol-5-ylamino)piperidin-1-yl)methyl)phenol]
Ki (ROCK2; [2]): 2.9 nM
Ki (ROCK2; average Ki, read-out: ROCK2 Ki): 2.9 nM
concentration at 15 min [1]: 10 nM
Ki (ROCK1; Avg, 10 μM ATP): 33.6 nM
Ki (ROCK1; average Ki): 33.6 nM
Ki (p70S6K human enzyme; [3]): 1880 nM
Ki (p70S6K human enzyme; [4]): 1880 nM
Ki (Akt3 human enzyme; [5]): 4420 nM
Ki (Akt3 human enzyme; average Ki, read-out: Akt3 Ki): 4420 nM

Fc1ccc(CN2CCC[C@H](Nc3ccc4[nH]ncc4c3)C2)cc1 [Compound 1.164, (S)-N-(1-(4-fluorobenzyl)piperidin-3-yl)-1H-indazol-5-amine]
Ki (ROCK2; [2]): 6.1 nM
Ki (ROCK2; average Ki, read-out: ROCK2 Ki): 6.1 nM
concentration at 15 min [1]: 1500 nM
Ki (ROCK1; Avg, 10 μM ATP): 42.4 nM
Ki (ROCK1; average Ki): 42.4 nM
Ki (p70S6K human enzyme; [3]): 1960 nM
Ki (p70S6K human enzyme; [4]): 1960 nM
Ki (Akt3 human enzyme; [5]): 4310 nM
Ki (Akt3 human enzyme; average Ki, read-out: Akt3 Ki): 4310 nM

c1cc2c(cc1CN1CCC[C@H](Nc3ccc4[nH]ncc4c3)C1)OCCO2 [Compound 1.166, (S)-N-(1-((2,3-dihydrobenzo[b][1,4]dioxin-6-yl)methyl)piperidin-3-yl)-1H-indazol-5-amine]
Ki (ROCK2; [2]): 8 nM
Ki (ROCK2; average Ki, read-out: ROCK2 Ki): 8 nM
concentration at 15 min [1]: 342 nM
Ki (ROCK1; Avg, 10 μM ATP): 95.2 nM
Ki (ROCK1; average Ki): 95.2 nM
Ki (p70S6K human enzyme; [3]): 5160 nM
Ki (p70S6K human enzyme; [4]): 5160 nM
Ki (Akt3 human enzyme; [5]): 18100 nM
Ki (Akt3 human enzyme; average Ki, read-out: Akt3 Ki): 18100 nM

Cc1cccc(CN2CCC[C@H](Nc3ccc4[nH]ncc4c3)C2)c1 [Compound 1.171, (S)-N-(1-(3-methylbenzyl)piperidin-3-yl)-1H-indazol-5-amine]
Ki (ROCK2; [2]): 16 nM
Ki (ROCK2; average Ki, read-out: ROCK2 Ki): 16 nM
concentration at 15 min [1]: 369 nM
Ki (ROCK1; Avg, 10 μM ATP): 109 nM
Ki (ROCK1; average Ki): 109 nM
Ki (p70S6K human enzyme; [3]): 3420 nM
Ki (p70S6K human enzyme; [4]): 3420 nM
Ki (Akt3 human enzyme; [5]): 9330 nM
Ki (Akt3 human enzyme; average Ki, read-out: Akt3 Ki): 9330 nM

c1cc(CN2CCC[C@H](Nc3ccc4[nH]ncc4c3)C2)cc(C2CC2)c1 [Compound 1.186, (S)-N-(1-(3-cyclopropylbenzyl)piperidin-3-yl)-1H-indazol-5-amine]
Ki (ROCK2; [2]): 11.9 nM
Ki (ROCK2; average Ki, read-out: ROCK2 Ki): 11.9 nM
concentration at 15 min [1]: 2170 nM
Ki (ROCK1; Avg, 10 μM ATP): 129 nM
Ki (ROCK1; average Ki): 129 nM
Ki (p70S6K human enzyme; [3]): 1610 nM
Ki (p70S6K human enzyme; [4]): 1610 nM
Ki (Akt3 human enzyme; [5]): 10200 nM
Ki (Akt3 human enzyme; average Ki, read-out: Akt3 Ki): 10200 nM

NC(=O)COc1cccc(CN2CCC[C@H](Nc3ccc4[nH]ncc4c3)C2)c1 [Compound 1.195]
Ki (ROCK2; [2]): 10.3 nM
Ki (ROCK2; average Ki, read-out: ROCK2 Ki): 10.3 nM
concentration at 15 min [1]: 108 nM
Ki (ROCK1; Avg, 10 μM ATP): 196 nM
Ki (ROCK1; average Ki): 196 nM
Ki (p70S6K human enzyme; [3]): 2730 nM
Ki (p70S6K human enzyme; [4]): 2730 nM
Ki (Akt3 human enzyme; [5]): 22000 nM
Ki (Akt3 human enzyme; average Ki, read-out: Akt3 Ki): 22000 nM

CCOC(=O)COc1cccc(CN2CCC[C@H](Nc3ccc4[nH]ncc4c3)C2)c1 [Compound 1.200, (S)-ethyl 2-(3-((3-(1H-indazol-5-ylamino)piperidin-1-yl)methyl)phenoxy)acetate]
Ki (ROCK2; [2]): 5.9 nM
Ki (ROCK2; average Ki, read-out: ROCK2 Ki): 5.9 nM
concentration at 15 min [1]: 0 nM
Ki (ROCK1; Avg, 10 μM ATP): 76.5 nM
Ki (ROCK1; average Ki): 76.5 nM
Ki (p70S6K human enzyme; [3]): 3900 nM
Ki (p70S6K human enzyme; [4]): 3900 nM
Ki (Akt3 human enzyme; [5]): 10600 nM
Ki (Akt3 human enzyme; average Ki, read-out: Akt3 Ki): 10600 nM

CS(=O)(=O)Nc1cc(CN2CCC[C@@H](Nc3ccc4[nH]ncc4c3)C2)ccc1Cl [Compound 1.212, (R)-N-(5-((3-(1H-indazol-5-ylamino)piperidin-1-yl)methyl)-2-chlorophenyl)methanesulfonamide]
Ki (ROCK2; [2]): 3.9 nM
Ki (ROCK2; average Ki, read-out: ROCK2 Ki): 3.9 nM
concentration at 15 min [1]: 863 nM
Ki (ROCK1; Avg, 10 μM ATP): 44.2 nM
Ki (ROCK1; average Ki): 44.2 nM
Ki (p70S6K human enzyme; [3]): 894 nM
Ki (p70S6K human enzyme; [4]): 894 nM
Ki (Akt3 human enzyme; [5]): 390 nM
Ki (Akt3 human enzyme; average Ki, read-out: Akt3 Ki): 390 nM
